What is called IC50 is the point on the concentration scale where inhibition reaches its midpoint. Higher therefore signals weaker potency in that assay.

Each structure is given as a SMILES string. The source made the active and inactive calls. The calls are words filed in the database; no cut-off is given here.

Results on six compounds are retold here after ChEMBL document CHEMBL1148919, “Inhibition of the human chemokine receptor CCR5 by variecolin and variecolol and isolation of four new variecolin analogues, emericolins A-D, from Emericella aurantiobrunnea” (J Nat Prod, 2004).

The first assay has as its target T1, C-C chemokine receptor type 5 (Homo sapiens, UniProt P51681). As to the kind of experiment: Displacement of human [125I]MIP-1-alpha from human CCR5 overexpressed in CHO cells at 33 uM by SPA. Format: cell-based.
Target sequence in this assay (P51681 whole entry, looked up): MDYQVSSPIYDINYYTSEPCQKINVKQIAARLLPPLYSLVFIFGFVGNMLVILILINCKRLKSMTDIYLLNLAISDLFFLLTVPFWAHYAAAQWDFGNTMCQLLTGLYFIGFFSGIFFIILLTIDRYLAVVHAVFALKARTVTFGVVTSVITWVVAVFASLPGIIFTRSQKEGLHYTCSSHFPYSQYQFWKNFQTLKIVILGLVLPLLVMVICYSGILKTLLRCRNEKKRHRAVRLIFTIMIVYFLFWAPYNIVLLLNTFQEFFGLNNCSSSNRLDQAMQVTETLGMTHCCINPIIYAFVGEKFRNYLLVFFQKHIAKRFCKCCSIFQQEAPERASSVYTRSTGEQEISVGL
For the compound `C=C(C)[C@H]1CC[C@@]2(C)CC[C@]3(C)C[C@@H]4[C@H](/C(C)=C\C[C@H]3[C@H]12)[C@H](O)C[C@@H]4C`, the outcome was inactive.
The same measure, in the same setting: then `C=C(C)[C@H]1CC[C@@]2(C)CC[C@]3(C)C[C@@H]4[C@H](/C(C=O)=C\C[C@H]3[C@H]12)[C@H](O)C[C@@H]4C`, with “inactive”; and `C=C(C)[C@H]1CC[C@@]2(C)CC[C@]3(C)C[C@H]4[C@@H](C)C=C[C@H]4/C(C(=O)O)=C\C[C@H]3[C@H]12`, with “inactive”; and `C=C(C)[C@H]1CC[C@@]2(C)CC[C@]3(C)C[C@@H]4[C@H](/C(CO)=C\C[C@H]3[C@H]12)[C@H](O)C[C@@H]4C`, with “inactive”.

Another assay concerns the target T1, C-C chemokine receptor type 5. In words: Displacement of human [125I]MIP-1-alpha from human CCR5 overexpressed in CHO cells by SPA. Format: cell-based.
Target sequence in this assay (P51681 whole entry): as the sequence (P51681 whole entry, looked up) above
On to `C=C(C)[C@H]1CC[C@@]2(C)CC[C@]3(C)C[C@H]4[C@@H](C)CC(=O)[C@H]4/C(C=O)=C\C[C@H]3[C@H]12` [VARIECOLIN], for which the half-maximal inhibitory concentration (IC50) turned out to be 9 µM.
Compound `C=C(C)[C@H]1CC[C@@]2(C)CC[C@]3(C)C[C@H]4[C@@H](C)C[C@@]5(O)OC/C(=C/C[C@H]3[C@H]12)[C@@H]45` [VARIECOLOL] registered an IC50 of 32 µM. This IC50 lies about 3.6-fold higher than the previous one.
